Read-outs that look alike come from different tables or passages of the source. Values belong to the compound of their own block, whether it stands above or below them.
Key:
[1] = amide bond, 13-membered ring, DMF
CFTR [2] = target: T1, CFTR (Homo sapiens, UniProt P13569, DEL508-508); experiment: HBE2 Assay: Ussing chamber assay of CFTR-mediated short-circuit currents in F508del/MF-HBE cells with 44 nM (6R,12R)-17-amino-12-methyl-6,15-bis(trifluoromethyl)-13,19-dioxa-3,4,18-triazatricyclo[12.3.1.12,5]nonadeca-1(18),2,4,14,16-pentaen-6-ol; assay type: cell-based; conditions: 3 μM with 44 nM (6R,12R)-17-amino-12-methyl-6,15-bis(trifluoromethyl)-13,19-dioxa-3,4,18-triazatricyclo[12.3.1.12,5]nonadeca-1(18),2,4,14,16-pentaen-6-ol, 18-24 hours, 20% human serum
T1 construct: endogenous in cells; host or cells: primary human bronchial epithelial cells, F508del/MF genotype
T1 sequence (P13569 with tags, fused parts or gaps DEL508-508): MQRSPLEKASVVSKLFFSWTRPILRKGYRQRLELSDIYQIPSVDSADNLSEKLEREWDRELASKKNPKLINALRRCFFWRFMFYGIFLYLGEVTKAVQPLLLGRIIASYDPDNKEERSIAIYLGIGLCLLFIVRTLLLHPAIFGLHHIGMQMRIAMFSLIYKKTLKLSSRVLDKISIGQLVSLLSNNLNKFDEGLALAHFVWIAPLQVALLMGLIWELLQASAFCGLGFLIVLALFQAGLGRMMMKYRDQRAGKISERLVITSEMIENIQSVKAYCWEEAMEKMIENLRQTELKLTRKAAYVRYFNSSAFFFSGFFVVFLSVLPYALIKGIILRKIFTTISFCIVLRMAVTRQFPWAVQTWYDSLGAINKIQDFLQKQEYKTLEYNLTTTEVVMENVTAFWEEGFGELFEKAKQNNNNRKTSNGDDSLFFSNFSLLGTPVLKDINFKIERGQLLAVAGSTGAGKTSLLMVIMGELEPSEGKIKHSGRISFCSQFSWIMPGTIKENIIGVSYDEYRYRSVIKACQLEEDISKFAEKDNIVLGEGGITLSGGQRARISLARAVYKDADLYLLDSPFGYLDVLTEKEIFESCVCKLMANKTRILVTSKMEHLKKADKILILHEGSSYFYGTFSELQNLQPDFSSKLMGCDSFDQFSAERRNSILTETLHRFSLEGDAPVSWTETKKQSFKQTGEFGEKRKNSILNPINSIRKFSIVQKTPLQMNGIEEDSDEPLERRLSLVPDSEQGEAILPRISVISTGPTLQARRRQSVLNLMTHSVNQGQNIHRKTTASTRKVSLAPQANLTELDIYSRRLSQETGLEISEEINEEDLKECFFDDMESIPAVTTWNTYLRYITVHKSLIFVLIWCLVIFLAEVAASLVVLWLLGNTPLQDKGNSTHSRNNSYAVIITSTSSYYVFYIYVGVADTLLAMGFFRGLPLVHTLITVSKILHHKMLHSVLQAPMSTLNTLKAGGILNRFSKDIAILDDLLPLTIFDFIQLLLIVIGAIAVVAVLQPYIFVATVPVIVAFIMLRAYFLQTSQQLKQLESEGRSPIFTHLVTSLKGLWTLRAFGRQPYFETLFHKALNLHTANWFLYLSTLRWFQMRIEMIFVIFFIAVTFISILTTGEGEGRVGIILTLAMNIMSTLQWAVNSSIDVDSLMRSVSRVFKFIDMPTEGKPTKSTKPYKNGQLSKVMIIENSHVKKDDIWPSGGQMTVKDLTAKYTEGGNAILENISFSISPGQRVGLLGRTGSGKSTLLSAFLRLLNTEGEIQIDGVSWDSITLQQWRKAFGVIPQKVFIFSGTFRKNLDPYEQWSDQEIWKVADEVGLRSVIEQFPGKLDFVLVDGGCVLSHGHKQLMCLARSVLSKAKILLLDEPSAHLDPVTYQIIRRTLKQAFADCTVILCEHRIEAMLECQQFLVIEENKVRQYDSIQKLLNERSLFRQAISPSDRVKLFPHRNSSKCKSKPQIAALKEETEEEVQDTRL
Description: Ussing chamber experiments were performed using human bronchial epithelial (HBE) cells derived from CF subjects heterozygous for F508del and a minimal function CFTR mutation (F508del/MF-HBE) and cultured as previously described (Neuberger T, Burton B, Clark H, Van Goor F Methods Mol Biol 2011:741:39-54). After four days the apical media was removed, and the cells were grown at an air liquid interface for >14 days prior to use.
To isolate the CFTR-mediated short-circuit (ISC) current, F508del/MF-HBE grown on Costar® Snapwell™ cell culture inserts were mounted in an Ussing chamber and the transepithelial ISC was measured under voltage-clamp recording conditions (Vhold=0 mV) at 37° C. The basolateral solution contained (in mM) 145 NaCl, 0.83 K2HPO4, 3.3 KH2PO4, 1.2 MgCl2, 1.2 CaCl2), 10 Glucose, 10 HEPES (pH adjusted to 7.4 with NaOH) and the apical solution contained (in mM) 145 NaGluconate, 1.2 MgCl2, 1.2 CaCl2), 10 glucose, 10 HEPES (pH adjusted to 7.4 with NaOH) and 30 μM amiloride to block the epithelial sodium channel. Forskolin (20 μM) was added to the apical surface to activate CFTR, followed by apical addition of a CFTR inhibitor cocktail consisting of BPO, GlyH-101, and CFTR inhibitor 172 (each at 20 μM final assay concentration) to specifically isolate CFTR currents. The CFTR-mediated ISC (μA/cm^2) for each condition was determined from the peak forskolin response to the steady-state current following inhibition.
The activity of the CFTR corrector compounds on the CFTR-mediated ISC was determined in Ussing chamber studies as described above. The F508del/MF-HBE cell cultures were either incubated with the corrector compounds at a range of concentrations in combination with 44 nM (6R,12R)-17-amino-12-methyl-6,15-bis(trifluoromethyl)-13,19-dioxa-3,4,18-triazatricyclo[12.3.1.12,5]nonadeca-1(18),2,4,14,16-pentaen-6-ol or were incubated with the corrector compounds at a single fixed concentration of 1 and 3 μM in combination with 44 nM (6R,12R)-17-amino-12-methyl-6,15-bis(trifluoromethyl)-13,19-dioxa-3,4,18-triazatricyclo[12.3.1.12,5]nonadeca-1(18),2,4,14,16-pentaen-6-ol for 18-24 hours at 37° C. and in the presence of 20% human serum. The concentration of corrector compounds with 44 nM (6R,12R)-17-amino-12-methyl-6,15-bis(trifluoromethyl)-13,19-dioxa-3,4,18-triazatricyclo[12.3.1.12,5]nonadeca-1(18),2,4,14,16-pentaen-6-ol during the 18-24 hours incubations was kept constant throughout the Ussing chamber measurement of the CFTR-mediated ISC to ensure compounds were present throughout the entire experiment.

F508del = target: T2, F508del (Homo sapiens, UniProt P13569, DEL508-508); experiment: 3T3 Assay: membrane potential optical assay for F508del correctors in NIH 3T3 cells; assay type: cell-based; conditions: for EC50: F508del corrector assay; for Emax: NIH3T3, F508del corrector assay, read-out: 3T3 Max Activity
T2 construct: expressed in transfected cells; host or cells: NIH3T3 mouse fibroblasts
T2 sequence (P13569 with tags, fused parts or gaps DEL508-508): as above
Description: The assay utilizes fluorescent voltage sensing dyes to measure changes in membrane potential using a fluorescent plate reader (e.g., FLIPR III, Molecular Devices, Inc.) as a readout for increase in functional F508del in NIH 3T3 cells. The driving force for the response is the creation of a chloride ion gradient in conjunction with channel activation by a single liquid addition step after the cells have previously been treated with compounds and subsequently loaded with a voltage sensing dye.
To identify correctors of F508del, a single-addition HTS assay format was developed. This HTS assay utilizes fluorescent voltage sensing dyes to measure changes in membrane potential on the FLIPR III as a measurement for increase in gating (conductance) of F508del in F508del NIH 3T3 cells. The F508del NIH 3T3 cell cultures were incubated with the corrector compounds at a range of concentrations for 18-24 hours at 37° C., and subsequently loaded with a redistribution dye. The driving force for the response is a Cl^− ion gradient in conjunction with channel activation with forskolin in a single liquid addition step using a fluorescent plate reader such as FLIPR III.
Bath Solution #1: (in mM) NaCl 160, KCl 4.5, CaCl2) 2, MgCl2 1, HEPES 10, pH 7.4 with NaOH.
Chloride-free bath solution: Chloride salts in Bath Solution #1 (above) are substituted with gluconate salts.
NIH3T3 mouse fibroblasts stably expressing F508del are used for optical measurements of membrane potential. The cells are maintained at 37° C. in 5% CO2 and 90% humidity in Dulbecco's modified Eagle's medium supplemented with 2 mM glutamine, 10% fetal bovine serum, 1×NEAA, b-ME, 1× pen/strep, and 25 mM HEPES in 175 cm^2 culture flasks. For all optical assays, the cells were seeded at ˜20,000/well in 384-well matrigel-coated plates. For the correction assays, the cells are cultured at 37° C. with and without compounds for 16-24 hours.

CFTR [3] = target: CFTR (Homo sapiens, UniProt P13569); experiment: Membrane Potential Dye, Enteroid Assay A; assay type: cell-based; conditions: for EC50: read-out: Ent. A EC50
Sequence of CFTR (Homo sapiens, UniProt P13569) (P13569 with tags, fused parts or gaps DEL508-508): as above

HBE2 Activity at 3 μM (%) (CFTR [2]): +++ (+++ is >60%)
SMILES: Cc1cccc(C)c1-c1nc2nc(c1F)OC[C@@H](CCC(C)(C)C)N(Cc1ncc(OC(C)C)cn1)C(=O)c1cccc(c1)S(=O)(=O)N2 [Compound 369]

HBE2 Activity at 3 μM (%) (CFTR [2]): +++ (+++ is >60%)
SMILES: Cc1cccc(C)c1-c1nc2nc(c1F)OC[C@@H](CCC(C)(C)C)N(Cc1cnc3cc(C(C)C)n(C)c3n1)C(=O)c1cccc(c1)S(=O)(=O)N2 [Compound 368]

HBE2 Activity at 3 μM (%) (CFTR [2]): +++ (+++ is >60%)
SMILES: Cc1cccc(C)c1-c1nc2nc(c1F)OC[C@@H](CCC(C)(C)C)N(Cc1cncc(N(C)C3CCC3)n1)C(=O)c1cccc(c1)S(=O)(=O)N2 [Compound 365]

HBE2 Activity at 3 μM (%) (CFTR [2]): +++ (+++ is >60%)
SMILES: Cc1cccc(C)c1-c1nc2nc(c1F)OC[C@@H](CCC(C)(C)C)N(Cc1cncc(N3CCCC[C@H]3C)n1)C(=O)c1cccc(c1)S(=O)(=O)N2 [Compound 367]

HBE2 Activity at 3 μM (%) (CFTR [2]): +++ (+++ is >60%)
SMILES: CC(C)=Cc1c(N2C(=O)c3cccc(c3)S(=O)(=O)Nc3nc(c(C)c(-c4c(C)cccc4C)n3)OC[C@H]2CC(C)(C)C)cnn1C [Compound 361, (11R)-6-(2,6-Dimethylphenyl)-11-(2,2-dimethylpropyl)-7-methyl-12-[1-methyl-5-(2-methylprop-1-enyl)pyrazol-4-yl]-2,2-dioxo-9-oxa-2λ^6-thia-3,5,12,19-tetrazatricyclo[12.3.1.14,8]nonadeca-1(18),4(19),5,7,14,16-hexaen-13-one]

HBE2 Activity at 3 μM (%) (CFTR [2]): +++ (+++ is >60%)
SMILES: Cc1cccc(C)c1-c1nc2nc(c1F)OC[C@@H](CCC(C)(C)C)N(Cc1cncc(N3CCC[C@H]3C)n1)C(=O)c1cccc(c1)S(=O)(=O)N2 [Compound 366]

HBE2 Activity at 3 μM (%) (CFTR [2]): +++ (+++ is >60%)
SMILES: Cc1cccc(C)c1-c1nc2nc(c1C)OC[C@@H](CC(C)(C)C)N(c1cnn(C)c1CC(C)C)C(=O)c1cccc(c1)S(=O)(=O)N2 [Compound 364, (11R)-6-(2,6-Dimethylphenyl)-11-(2,2-dimethylpropyl)-12-(5-isobutyl-1-methyl-pyrazol-4-yl)-7-methyl-2,2-dioxo-9-oxa-2λ^6-thia-3,5,12,19-tetrazatricyclo[12.3.1.14,8]nonadeca-1(18),4(19),5,7,14,16-hexaen-13-one]

HBE2 Activity at 3 μM (%) (CFTR [2]): +++ (+++ is >60%)
SMILES: Cc1cccc(C)c1-c1nc2cc(c1C(F)(F)F)OC[C@@H](CC(C)(C)C)N(Cc1cncc(N(C)C3CCC3)n1)C(=O)c1cccc(c1)S(=O)(=O)N2 [Compound 363, (11R)-12-[[6-[Cyclobutyl(methyl)amino]pyrazin-2-yl]methyl]-6-(2,6-dimethylphenyl)-11-(2,2-dimethylpropyl)-2,2-dioxo-7-(trifluoromethyl)-9-oxa-2λ^6-thia-3,5,12-triazatricyclo[12.3.1.14,8]nonadeca-1(18),4(19),5,7,14,16-hexaen-13-one]

Further lines, the compound ahead of its results:

SMILES: Cc1cccc(C)c1-c1nc2nc(c1C)OC[C@@H](CC(C)C)N(C1CC3(CCN(C(=O)OC(C)(C)C)CC3)C1)C(=O)c1cccc(c1)S(=O)(=O)N2
ring closure, isolated yield ([1]; from Cc1cccc(C)c1-c1nc(NS(=O)(=O)c2cccc(C(=O)O)c2)nc(OC[C@@H](CC(C)C)NC2CC3(CCN(C(=O)OC(C)(C)C)CC3)C2)c1C, HATU/DIEA, 9.1 mM, 3.0 h, 2 steps): 46%

SMILES: Cc1cccc(C)c1-c1nc2nc(c1Br)O[C@H](C)CNC(=O)c1cccc(c1)S(=O)(=O)N2
ring closure, isolated yield ([1]; from Cc1cccc(C)c1-c1nc(NS(=O)(=O)c2cccc(C(=O)O)c2)nc(O[C@H](C)CN)c1Br, HATU/HOBt/DIEA, 31.1 mM, 0.42 h): 54%

SMILES: Cc1cccc(CC(C)C)c1-c1nc2nc(c1C)OC[C@@H](CC(C)(C)C)N(Cc1cncc(N(C)C3CCC3)n1)C(=O)c1cccc(c1)S(=O)(=O)N2 (atropisomer, axis not shown) [Compound 357]
HBE2 Activity at 3 μM (%) (CFTR [2]): +++ (+++ is >60%)

SMILES: Cc1cccc(CC2CCCCC2)c1-c1nc2nc(c1C)OC[C@@H](CC(C)(C)C)N(Cc1cncc(N(C)C3CCC3)n1)C(=O)c1cccc(c1)S(=O)(=O)N2 [Compound 360]
HBE2 Activity at 3 μM (%) (CFTR [2]): +++ (+++ is >60%)

SMILES: Cc1cccc(C)c1-c1nc2nc(c1C)OC[C@@H](CC(C)C)N(Cc1cncc(N(C)C3CCC3)n1)C(=O)c1cccc(c1)S(=O)(=O)N2 [Compound 358]
HBE2 Activity at 3 μM (%) (CFTR [2]): +++ (+++ is >60%)

SMILES: Cc1cccc(C)c1-c1nc2nc(c1C)OC[C@@H](CC(C)(C)C)N(Cc1cncc(N(C)C3CCC3)n1)C(=O)c1cccc(c1)S(=O)(=O)N2 [Compound 359]
HBE2 Activity at 3 μM (%) (CFTR [2]): +++ (+++ is >60%)

SMILES: Cc1cccc(CCC(C)C)c1-c1nc2nc(c1C)OC[C@@H](CC(C)(C)C)N(Cc1ncc(OC(C)C)cn1)C(=O)c1cccc(c1)S(=O)(=O)N2 (atropisomer, axis not shown; (P)) [Compound 334, (5P,11R)-11-(2,2-Dimethylpropyl)-7-methyl-6-[2-methyl-6-(3-methylbutyl)phenyl]-12-{[5-(propan-2-yloxy)pyrimidin-2-yl]methyl}-9-oxa-2λ^6-thia-3,5,12,19-tetraazatricyclo[12.3.1.14,8]nonadeca-1(17),4(19),5,7,14(18),15-hexaene-2,2,13-trione]
HBE2 Activity at 3 μM (%) (CFTR [2]): +++ (+++ is >60%)

SMILES: Cc1cccc(CCC(C)C)c1-c1nc2nc(c1C)OC[C@@H](CC(C)(C)C)N(Cc1ncc(OC(C)C)cn1)C(=O)c1cccc(c1)S(=O)(=O)N2 (atropisomer, axis not shown; (M)) [Compound 333, (5M,11R)-11-(2,2-Dimethylpropyl)-7-methyl-6-[2-methyl-6-(3-methylbutyl)phenyl]-12-{[5-(propan-2-yloxy)pyrimidin-2-yl]methyl}-9-oxa-2λ^6-thia-3,5,12,19-tetraazatricyclo[12.3.1.14,8]nonadeca-1(17),4(19),5,7,14(18),15-hexaene-2,2,13-trione]
HBE2 Activity at 3 μM (%) (CFTR [2]): +++ (+++ is >60%)

SMILES: Cc1cccc(OC(C)C)c1-c1nc2nc(c1C)OC[C@@H](CC(C)(C)C)N(Cc1ncc(N3CCC(C)(C)C3)cn1)C(=O)c1cccc(c1)S(=O)(=O)N2 (atropisomer, axis not shown) [Compound 356]
HBE2 Activity at 3 μM (%) (CFTR [2]): +++ (+++ is >60%)

SMILES: CCc1c2nc(nc1-c1ccccc1OCC(C)C)NS(=O)(=O)c1cccc(c1)NC(=O)c1cccc(c1)O2 [Compound 26]
EC50 (F508del): < 1 µM
Emax (F508del): > 60%
Ent. A Max Activity (CFTR [3]): + (+ is <30%)
EC50 (CFTR [3]): 1 to 3 µM

SMILES: CCc1c2nc(nc1-c1c(C)cccc1C)NS(=O)(=O)c1cccc(c1)NC(=O)c1cccc(c1)O2 [Compound 4, 5-(2,6-Dimethylphenyl)-4-ethyl-9,9-dioxo-2-oxa-9λ^6-thia-6,8,15,23-tetrazatetracyclo[15.3.1.13,7.110,14]tricosa-1(21),3,5,7(23),10,12,14(22),17,19-nonaen-16-one]
EC50 (F508del): < 1 µM
Emax (F508del): > 60%
Ent. A Max Activity (CFTR [3]): +++ (+++ is >60%)
EC50 (CFTR [3]): 1 to 3 µM

Reference: US20230374038A1, “MODULATORS OF CYSTIC FIBROSIS TRANSMEMBRANE CONDUCTANCE REGULATOR” (VERTEX PHARMACEUTICALS INCORPORATED, priority 2020, published 2023)
